Target: YAP-TEAD protein interaction (His-TEAD1 (209-426) protein, Bio-YAP peptide (60-100)) (Homo sapiens, UniProt P28347)
Assay: YAP-TEAD protein interaction HTRF experiment
Type: binding
Settings: His-TEAD1 (209-426) 10 nM, Bio-YAP peptide 50 nM, read-out: Activity of each compound in blocking YAP-TEAD protein interaction (grades of IC50 values)
Method: In this example, the YAP-TEAD protein interaction HTRF experiment was used to detect the activity of each compound in blocking the YAP-TEAD protein interaction.
The experiment was carried out according to the following operation steps:
Step 1: His-TEAD1 (209-426) protein was added to a 384-well detection white plate to a final concentration of 10 nM, and buffer was used as the background signal well. The compounds to be tested were subjected to 3-fold dilution and a total of 10 concentration gradients were set up, and each diluted solution was mixed well. A certain volume of the compound to be tested was added to each well separately, 2 replicates were set for each concentration, and the final concentration of DMSO was controlled at 1%. Incubation was carried out at room temperature for 20 minutes. The amino acid sequence of TAED1 (209-426) used in this step is shown in SEQ ID NO: 1:
After mixing evenly, the mixture was incubated at room temperature for 10 minutes.
Step 3: Anti-His-Eu cryptate gold and streptavidin-XL665 were diluted according to the instructions and mixed in equal proportions. A certain volume of the detection reagent was added to the well, and the mixture was incubated at room temperature for 1 hour.
Step 4: The signal was detected using an Envision (Perkin Elmer) microplate reader at an excitation wavelength of 320 nm and emission wavelengths of 665 nm and 620 nm.
Step 5: The signal was calculated based on the ratio of Em665/Em620*10000.
The inhibition percentage (%) was calculated using the following formula: […]
The half-maximal inhibitory concentration (IC50) values were calculated using GraphPad Prism software.

Sequence of YAP-TEAD protein interaction (His-TEAD1 (209-426) protein, Bio-YAP peptide (60-100)) (P28347 209-426): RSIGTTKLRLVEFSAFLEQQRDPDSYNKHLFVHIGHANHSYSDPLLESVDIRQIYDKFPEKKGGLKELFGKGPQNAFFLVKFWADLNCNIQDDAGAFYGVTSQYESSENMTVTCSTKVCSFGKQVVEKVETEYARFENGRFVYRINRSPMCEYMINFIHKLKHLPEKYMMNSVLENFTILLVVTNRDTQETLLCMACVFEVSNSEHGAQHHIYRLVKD

SMILES | IC50 [µM]
NC(=O)c1cc2c(c(F)c1-c1c(Cl)c(F)cc3c1C[C@](c1ccccc1)([C@@H]1CCCN1)O3)OCCOC2 (atropisomer, axis not shown) [Compound I-54, (S)-8-((S)-5-Chloro-6-fluoro-2-phenyl-2-((S)-pyrrolidin-2-yl)-2,3-dihydrobenzofuran-4-yl)-9-fluoro-2,3-trihydro-5H-benzo[e][1,4]dioxa-7-carboxamide] | < 0.05
CNC(=O)c1cc2c(c(F)c1-c1c(Cl)c(F)cc3c1C[C@](c1ccccc1)([C@@H]1CCCN1)O3)OC(CO)CO2 (stereo partly drawn) [Compound I-56, (S)-7-((S)-5-Chloro-6-fluoro-2-phenyl-2-((S)-pyrrolidin-2-yl)-2,3-dihydrobenzofuran-4-yl)-8-fluoro-2-(hydroxymethyl)-N-methyl-2,3-dihydrobenzo[b][1,4] dioxoine-6-carboxamide] | < 0.05
Cn1cc2c(n1)COc1c-2cc(C(N)=O)c(-c2c(Cl)c(F)cc3c2C[C@](c2ccccc2)([C@@H]2CCCN2)O3)c1F (atropisomer, axis not shown) [Compound 3′, (R)-7-((S)-5-Chloro-6-fluoro-2-phenyl-2-((S)-pyrrolidin-2-yl)-2,3-dihydrobenzofuran-4-yl)-6-fluoro-2-methyl-2,4-dihydrochromeno[3,4-c]pyrazole-8-carboxamide] | 0.05 to 0.5
NC(=O)c1cc2c(c(F)c1-c1c(Cl)c(F)cc3c1C[C@](c1ccccc1)([C@@H]1CCCN1)O3)Oc1c(cnn(C3COC3)c1=O)O2 (atropisomer, axis not shown) [Compound 145, (S)-8-((S)-5-Chloro-6-fluoro-2-phenyl-2-((S)-pyrrolidin-2-yl)-2,3-dihydrobenzofuran-4-)-9-fluoro-2-(oxetan-3-yl)-1-oxo-1,2-dihydrobenzo[5,6][1,4]dioxo [2,3-d]pyridazine-7-carboxamide] | < 0.05
CNC(=O)c1cc2c(c(F)c1-c1c(Cl)c(F)cc3c1C[C@](c1ccccc1)([C@@H]1CCCN1)O3)OCCN2 (atropisomer, axis not shown) [Compound I-26, (S)-7-((2S)-5-Chloro-6-fluoro-2-phenyl-2-((S)-pyrrolidin-2-yl)-2,3-dihydrobenzofuran-4-yl)-8-fluoro-N-methyl-3,4-dihydro-2H-benzo[b][1,4]oxazine-6-carboxamide] | < 0.05
NC(=O)c1cc2c(c(F)c1-c1c(Cl)c(F)cc3c1C[C@](c1ccccc1)([C@@H]1CCCN1)O3)OCC2 (atropisomer, axis not shown) [Compound I-31, (2S,4S)-5-Chloro-6,7′-difluoro-2-phenyl-2-((S)-pyrrolidin-2-yl)-2,2′,3,3′-tetrahydrofuran-[4,6′-bibenzofuran]-5′-carboxamide] | < 0.05
Cc1nnc2n1-c1cc(C(N)=O)c(-c3c(Cl)c(F)cc4c3C[C@](c3ccccc3)([C@@H]3CCCN3)O4)c(F)c1OC2 (atropisomer, axis not shown) [Compound 43, (S)-7-((S)-5-Chloro-6-fluoro-2-phenyl-2-((S)-pyrrolidin-2-yl)-2,3-dihydrobenzofuran-4-yl)-6-fluoro-1-methyl-4H-benzo[b][1,2,4]triazolo[4,3-d][1,4]oxazine-8-carboxamide] | 0.05 to 0.5
CNC[C@@]1(c2ccccc2)Cc2c(cc(F)c(Cl)c2-c2c(C(N)=O)cc3c(ccn3C)c2F)O1 (atropisomer, axis not shown) [Compound I-2, (S)-5-((S)-5-Chloro-6-fluoro-2-((methylamino)methyl)-2-phenyl-2,3-dihydrobenzofuran-4-yl)-4-fluoro-1-methyl-1H-indole-6-carboxamide] | < 0.05
NC(=O)c1cc2c(c(F)c1-c1c(Cl)c(F)cc3c1C[C@](c1ccccc1)([C@@H]1CCCN1)O3)OC(CO)C2 (stereo partly drawn) [Compound I-52, (2S,6′S)-5-Chloro-6,7′-difluoro-2′-(hydroxymethyl)-2-phenyl-2-((S)-pyrrolidin-2-yl)-2,2′,3,3′-tetrahydro-[4,6′-bibenzofuran]-5′-carboxamide] | < 0.05
N#CCC1Cc2cc(C(N)=O)c(-c3c(Cl)c(F)cc4c3C[C@](c3ccccc3)([C@@H]3CCCN3)O4)c(F)c2O1 (stereo partly drawn) [Compound I-55, (2S)-5-Chloro-2′-(cyanomethyl)-6,7′-difluoro-2-phenyl-2-((S)-pyrrolidin-2-yl)-2,2′,3,3′-tetrahydro-[4,6′-bibenzofuran]-5′-carboxamide] | < 0.05
NC(=O)c1cc2c(c(F)c1-c1c(Cl)c(F)cc3c1C[C@](c1ccccc1)([C@@H]1CCCN1)O3)OCCO2 [Compound 1′, 7-((2S,4R)-5-Chloro-6-fluoro-2-phenyl-2-((S)-pyrrolidin-2-yl)-2,3-dihydrobenzofuran-4-yl)-8-fluoro-2,3-dihydrobenzo[b][1,4]dioxine-6-carboxamide] | 0.05 to 0.5
CNC(=O)c1cc2c(c(F)c1-c1c(Cl)c(F)cc3c1C[C@](c1ccccc1)([C@@H]1CCCN1)O3)[C@@H](O)CC2 (atropisomer, axis not shown) [Compound I-59, (1S,6S)-6-((S)-5-Chloro-6-fluoro-2-phenyl-2-((S)-pyrrolidin-2-yl)-2,3-dihydrobenzofuran-4-yl)-7-fluoro-1-hydroxy-N-methyl-2,3-dihydro-1H-indene-5-carboxamide] | < 0.05
NC(=O)c1cc2c(c(F)c1-c1c(Cl)c(F)cc3c1C[C@](c1ccccc1)([C@@H]1CCCN1)O3)[C@@H](O)CC2 (atropisomer, axis not shown) [Compound I-57, (1S,6S)-6-((S)-5-Chloro-6-fluoro-2-phenyl-2-((S)-pyrrolidin-2-yl)-2,3-dihydrobenzofuran-4-yl)-7-fluoro-1-hydroxy-2,3-dihydro-1H-indene-5-carboxamide] | < 0.05
NC(=O)c1cc2c(c(F)c1-c1c(Cl)c(F)cc3c1C[C@](c1ccccc1)([C@@H]1CCCN1)O3)[C@H](O)CC2 (atropisomer, axis not shown) [Compound I-58, (1R,6S)-6-((S)-5-Chloro-6-fluoro-2-phenyl-2-((S)-pyrrolidin-2-yl)-2,3-dihydrobenzofuran-4-yl)-7-fluoro-1-hydroxy-2,3-dihydro-1H-indene-5-carboxamide] | 0.05 to 0.5
CNC(=O)c1cc2c(c(F)c1-c1c(Cl)c(F)cc3c1C[C@](c1ccccc1)([C@@H]1CCCN1)O3)[C@H](O)CC2 (atropisomer, axis not shown) [Compound I-60, (1R,6S)-6-((S)-5-Chloro-6-fluoro-2-phenyl-2-((S)-pyrrolidin-2-yl)-2,3-dihydrobenzofuran-4-yl)-7-fluoro-1-hydroxy-N-methyl-2,3-dihydro-1H-indene-5-carboxamide] | 0.05 to 0.5
NC(=O)c1cc2c(c(F)c1-c1c(Cl)c(F)cc3c1C[C@](c1ccccc1)([C@@H]1CCCN1)O3)OC(CO)CO2 (stereo partly drawn) [Compound I-53, (S)-7-((S)-5-Chloro-6-fluoro-2-phenyl-2-((S)-pyrrolidin-2-yl)-2,3-dihydrobenzofuran-4-yl)-8-fluoro-2-(hydroxymethyl)-2,4-dihydrobenzo[b][1,4] dioxoine-6-carboxamide] | < 0.05
Cn1cc2c(n1)COc1c-2cc(C(N)=O)c(-c2c(Cl)c(F)cc3c2C[C@](c2ccccc2)([C@@H]2CC(O)CN2)O3)c1F (stereo partly drawn) [Compound 55, (7S)-7-((2S)-5-Chloro-6-fluoro-2-((2S)-4-hydroxypyrrolidin-2-yl)-2-phenyl-2,3-dihydrobenzofuran-4-yl)-6-fluoro-2-methyl-2,4-dihydrochromeno[3,4-c]pyrazole-8-carboxamide] | 0.5 to 5
NC(=O)c1cn2ccnc2c(F)c1-c1c(Cl)c(F)cc2c1C[C@](c1ccccc1)([C@@H]1CCCN1)O2 (atropisomer, axis not shown) [Compound I-11, (S)-7-((S)-5-Chloro-6-fluoro-2-phenyl-2-((S)-pyrrolidin-2-yl)-2,3-dihydrobenzofuran-4-yl)-8-fluoroimidazo[1,2-a]pyridine-6-carboxamide] | < 0.05
NC(=O)c1cc2c(c(F)c1-c1c(Cl)c(F)cc3c1C[C@](c1ccccc1)([C@@H]1CCCN1)O3)Oc1ncnc(N)c1O2 (atropisomer, axis not shown) [Compound 113, (S)-4-Amino-8-((S)-5-chloro-6-fluoro-2-phenyl-2-((S)-pyrrolidin-2-yl)-2,3-dihydrobenzofuran-4-yl)-9-fluorobenzo[5,6][1,4]dioxo [2,3-d]pyrimidine-7-carboxamide] | 0.05 to 0.5
[2H]c1c([2H])c([2H])c([C@]2([C@@H]3CCCN3)Cc3c(cc(F)c(Cl)c3-c3c(C(N)=O)cc4c(c3F)OCc3nn(C)cc3-4)O2)c([2H])c1[2H] (atropisomer, axis not shown) [Compound 117, (S)-7-((S)-5-Chloro-6-fluoro-2-(phenyl-d5)-2-((S)-pyrrolidin-2-yl)-2,3-dihydrobenzofuran-4-yl)-6-fluoro-2-methyl-2,4-dihydrochromeno[3,4-c]pyrazole-8-carboxamide] | > 5

From patent US20250177408A1, “INHIBITOR OF INTERACTION BETWEEN YAP/TAZ AND TEAD, PREPARATION THEREOF, PHARMACEUTICAL COMPOSITION THEREOF AND USE THEREOF” (ETERN BIOPHARMA (SHANGHAI) CO., LTD., priority 2022, published 2025)
